# Reference: patent publication US8987262B2, “Use of a beta blocker for the manufacture of a medicament for the treatment of hemangiomas” (Universite de Bordeaux, priority 2007, dated 2015)
# Like-named read-outs stand apart in the source and are kept apart here.
# How the values were obtained:
# cleaved caspase-3 and 8 = assay: Immuno-histochemical analysis of IH biopsy with anti-cleaved caspase-3 and 8 antibodies; parameters: species or system human; settings: Example 2, arm biopsy at 3 months of age
# Description: Prednisolone treatment was progressively tapered down while the IH continued to improve. At 3 months of age a biopsy sample was obtained on the arm, showing a typical IH.
# Reintroduction of propranolol treatment at 2 mg/kg/day was successful after only 24 hours.
# subglottic hemangioma = settings: cited from earlier work
# [1] = system: infantile capillary hemangiomas (IH); assay: Treatment of infants with infantile hemangioma (case reports, Examples 1-3)
# infantile hemangiomas = settings: cited from earlier work
# HIF-1alpha and VEGF = settings: pressure-overloaded rat heart; cited from earlier work
# head and neck IH = settings: oral suspension up to 4 mg/kg/day, 24 weeks; cited from earlier work
# IH = settings: in vivo; cited from earlier work
# [2] = Case 4, 3 mg/kg/day, stenosis at referral 90%
# [3] = Case 1, 8 mg/kg/day, stenosis at referral 90%
# [4] = Case 2, 8 mg/kg/day, stenosis at referral 70%
# [5] = Case 3, 8 mg/kg/day, stenosis at referral 90%
compound,measurement,setting,value
CC(C)NCC(O)COc1cccc2ccccc12 (racemic) [propranolol],cleaved caspase-3 and 8 immunostaining (proapoptotic role),cleaved caspase-3 and 8,did not demonstrate positive immunostaining
same,Beta-blocker efficiency,subglottic hemangioma; [2],success
same,Laryngeal stenosis during beta-blocker treatment (%),subglottic hemangioma; [2],5%
same,change of the hemangioma after onset of treatment,"[1]; Example 1, baby, nasal pyramid IH, 3 mg/kg/day, the day after onset","changed in color from intense red to purple, and softened"
same,aspect of the IH,"[1]; Example 1, still under propranolol",completely flat
same,parotidal and axillary subcutaneous hemangiomatous components,"[1]; Example 2, 2 mg/kg/d",not palpable
same,time to softening of the lesions after onset,"[1]; Example 2, 2 mg/kg/day",12 h
same,time to success after reintroduction of treatment,"[1]; Example 2, 2 mg/kg/day",24 h
same,change in size of hemangioma,"[1]; Example 2, 2 mg/kg/day, seven days after onset",dramatic reduction in size of the subcutaneous component of the hemangioma
same,effect of treatment interruption,"[1]; Example 2, 3-day interruption, superior eyelid and parotidal areas",mild increase in size of the hemangioma
same,outcome after treatment stopped,"[1]; Example 2, stopped",without any re-growth of the IH
same,hemodynamic modifications,"[1]; Example 3, 7 days after onset, 2 mg/kg/day",without any hemodynamic modifications
same,IH thickness (ultrasonography),"[1]; Example 3, 7 days after onset, versus 12 mm before",6 mm
same,IH diameter (ultrasonography),"[1]; Example 3, 7 days after onset, versus 32 mm before",21 mm
same,time to flattening of the lesion,"[1]; Example 3, periocular IH, 2 mg/kg/day",12 h
same,outcome after treatment stopped,"[1]; Example 3, stopped after one month",novel increase in size of the IH
same,outcome after treatment stopped,"[1]; Example 3, stopped at 8 months",without any rebound of the hemangioma
same,aspect of the IH,"[1]; Example 3, treatment resumed",flat and had faded in color
same,treatment failure,[1]; all treated children (Examples 1-3 and seven other),No treatment failure
CCCC(=O)Nc1ccc(OCC(O)CNC(C)C)c(C(C)=O)c1 (centres unmarked) [Acebutolol],overall result of study,subglottic hemangioma; 8 mg/kg/day,able to treat hemangiomas
same,Beta-blocker efficiency,subglottic hemangioma; [3],Failure
same,Laryngeal stenosis during beta-blocker treatment (%),subglottic hemangioma; [3],90%
same,Beta-blocker efficiency,subglottic hemangioma; [4],success
same,Laryngeal stenosis during beta-blocker treatment (%),subglottic hemangioma; [4],10%
same,Beta-blocker efficiency,subglottic hemangioma; [5],success
same,Laryngeal stenosis during beta-blocker treatment (%),subglottic hemangioma; [5],5%
"CC(C)(C)NC[C@H](O)COc1nsnc1N1CCOCC1 [Timolol, timolol]",Mean VAS ± Standard deviation,infantile hemangiomas; Age at treatment inititation (mos) <6,45 ± 27
same,Mean VAS ± Standard deviation,infantile hemangiomas; Age at treatment inititation (mos) >6,47 ± 30
same,Mean VAS ± Standard deviation,infantile hemangiomas; Depth of hemangioma: Deep,32 ± 28
same,Mean VAS ± Standard deviation,infantile hemangiomas; Depth of hemangioma: Superficial,53 ± 29
same,Mean VAS ± Standard deviation,infantile hemangiomas; Location: Facial,45 ± 29
same,Mean VAS ± Standard deviation,infantile hemangiomas; Location: Nonfacial,43 ± 32
same,Mean VAS ± Standard deviation,infantile hemangiomas; Timolol concentration (%) 0.1,24 ± 29
same,Mean VAS ± Standard deviation,infantile hemangiomas; Timolol concentration (%) 0.5,48 ± 28
same,Mean VAS ± Standard deviation,infantile hemangiomas; Treatment duration (mos) <3,38 ± 28
same,Mean VAS ± Standard deviation,infantile hemangiomas; Treatment duration (mos) >3,52 ± 30
same,overall result of study,infantile hemangiomas; timolol maleate 0.1% or 0.5% gel-forming solution,able to treat hemangiomas
C[C@H]1C[C@H]2[C@@H]3CCC4=CC(=O)C=C[C@]4(C)[C@@]3(F)[C@@H](O)C[C@]2(C)[C@@]1(O)C(=O)CO [betamethasone],cardiac sonography finding,"[1]; Example 1, under systemic steroid",obstructive hypertrophic myocardiopathy
COc1ccccc1OCCNCC(O)COc1cccc2[nH]c3ccccc3c12 (centres unmarked) [cardivedilol],effect on HIF-1alpha and VEGF protein and mRNA,HIF-1alpha and VEGF,reverses both protein and mRNA of HIF-1alpha and VEGF to the baseline values
CC(C)(C)NCC(O)COc1cccc2c1CC(O)C(O)C2 (centres unmarked) [nadolol],overall result of study,head and neck IH,able to treat efficiently hemangiomas
C[C@]12C=CC(=O)C=C1CC[C@@H]1[C@@H]2[C@@H](O)C[C@@]2(C)[C@H]1CC[C@]2(O)C(=O)CO [prednisolone],CS efficiency,"subglottic hemangioma; Case 1, before beta-blocker treatment, (2 mg/kg/day)",CS-persistant
same,CS efficiency,"subglottic hemangioma; Case 2, before beta-blocker treatment, (1 mg/kg/day)",CS-dependent
same,CS efficiency,"subglottic hemangioma; Case 3, before beta-blocker treatment, (1 mg/kg/day)",CS-dependent
same,CS efficiency,"subglottic hemangioma; Case 4, before beta-blocker treatment, (1.5 mg/kg/day)",CS-dependent
same,effect on hemangioma,"[1]; Example 1, one-month treatment at 3 mg/kg/day","stabilized, but nasal necrosis progressed"
same,effect on IH,"[1]; Example 2, 3 mg/kg/day 2 weeks then 5 mg/kg/day 2 weeks",continued to enlarge
CC[C@]1(O)C[C@H]2CN(CCc3c([nH]c4ccccc34)[C@@](C(=O)OC)(c3cc4c(cc3OC)N(C=O)[C@H]3[C@@](O)(C(=O)OC)[C@H](OC(C)=O)[C@]5(CC)C=CCN6CC[C@]43[C@@H]65)C2)C1 [vincristine],well-known downsides,IH,"peripheral neuropathy, constipation, and hematologic toxicity"
